# Data from BindingDB's records for PubMed 1325033 (Universit&Acute, 1992).
# Several values for one entry are separate records, joined by “and”; a condition that tells them apart may be missing. Equal entries are not always repeated. Peptide text beside a SMILES is read from it.
# Biological target: T1, Pituitary adenylate cyclase-activating polypeptide (Rattus norvegicus, UniProt P13589)
# T1 sequence (P13589 whole entry): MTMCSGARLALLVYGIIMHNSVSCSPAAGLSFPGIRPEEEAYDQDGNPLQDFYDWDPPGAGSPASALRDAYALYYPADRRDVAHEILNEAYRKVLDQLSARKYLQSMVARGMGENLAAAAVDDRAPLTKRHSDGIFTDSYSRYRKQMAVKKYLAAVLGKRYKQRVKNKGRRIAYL
row,Compound,Ki
1,H-TDSYSRYRKQMAVKKYLAAVL-NH2 [PACAP(6-27)],4000 nM and > 10000 nM
2,CCC(C)[C@H](NC(=O)CNC(=O)[C@H](CC(=O)O)NC(=O)[C@@H](Cc1ccccc1)NC(=O)[C@@H](N)Cc1cnc[nH]1)C(=O)N[C@@H](Cc1ccccc1)C(=O)N[C@H](C(=O)N[C@@H](CC(=O)O)C(=O)N[C@@H](CO)C(=O)N[C@@H](Cc1ccc(O)cc1)C(=O)N[C@@H](CO)C(=O)N[C@@H](CCCN=C(N)N)C(=O)N[C@@H](Cc1ccc(O)cc1)C(=O)N[C@@H](CCCN=C(N)N)C(=O)N[C@@H](CCCCN)C(=O)N[C@@H](CCC(N)=O)C(=O)N[C@@H](CCSC)C(=O)N[C@@H](C)C(=O)N[C@H](C(=O)N[C@@H](CCCCN)C(=O)N[C@@H](CCCCN)C(=O)N[C@@H](Cc1ccc(O)cc1)C(=O)N[C@@H](CC(C)C)C(=O)N[C@@H](C)C(=O)N[C@@H](C)C(=O)N[C@H](C(=O)N[C@@H](CC(C)C)C(N)=O)C(C)C)C(C)C)[C@@H](C)O (stereo partly drawn) [[D-Phe2]PACAP-27],350 nM and 1000 nM
3,H-FTDSYSRYRKQMAVKKYLAAVL-NH2 [PACAP(5-27)],300 nM and 2000 nM
4,CCC(C)[C@H](NC(=O)CNC(=O)[C@H](CC(=O)O)NC(=O)[C@@H](Cc1ccccc1)NC(=O)[C@@H](N)Cc1cnc[nH]1)C(=O)N[C@@H](Cc1ccccc1)C(=O)N[C@H](C(=O)N[C@@H](CC(=O)O)C(=O)N[C@@H](CO)C(=O)N[C@@H](Cc1ccc(O)cc1)C(=O)N[C@@H](CO)C(=O)N[C@@H](CCCN=C(N)N)C(=O)N[C@@H](Cc1ccc(O)cc1)C(=O)N[C@@H](CCCN=C(N)N)C(=O)N[C@@H](CCCCN)C(=O)N[C@@H](CCC(N)=O)C(=O)N[C@@H](CCSC)C(=O)N[C@@H](C)C(=O)N[C@H](C(=O)N[C@@H](CCCCN)C(=O)N[C@@H](CCCCN)C(=O)N[C@@H](Cc1ccc(O)cc1)C(=O)N[C@@H](CC(C)C)C(=O)N[C@@H](C)C(=O)N[C@@H](C)C(=O)N[C@H](C(=O)N[C@@H](CC(C)C)C(=O)NCC(=O)N[C@@H](CCCCN)C(=O)N[C@@H](CCCN=C(N)N)C(=O)N[C@@H](Cc1ccc(O)cc1)C(=O)N[C@@H](CCCCN)C(=O)N[C@@H](CCC(N)=O)C(=O)N[C@@H](CCCN=C(N)N)C(=O)N[C@H](C(=O)N[C@@H](CCCCN)C(=O)N[C@@H](CC(N)=O)C(=O)N[C@@H](CCCCN)C(N)=O)C(C)C)C(C)C)C(C)C)[C@@H](C)O (stereo partly drawn) [[D-Phe2]PACAP-38] (HELM PEPTIDE1{H.[dF].D.G.[CCC(C)[C@H](N[*:1])C(=O)[*:2]].F.T.D.S.Y.S.R.Y.R.K.Q.M.A.V.K.K.Y.L.A.A.V.L.G.K.R.Y.K.Q.R.V.K.N.K.[am]}$$$$V2.0),5 nM and 40 nM

# Other lines, results leading:
row,Ki,Compound
1,300 nM,CCC(C)[C@H](NC(=O)CN)C(=O)N[C@@H](Cc1ccccc1)C(=O)N[C@H](C(=O)N[C@@H](CC(=O)O)C(=O)N[C@@H](CO)C(=O)N[C@@H](Cc1ccc(O)cc1)C(=O)N[C@@H](CO)C(=O)N[C@@H](CCCN=C(N)N)C(=O)N[C@@H](Cc1ccc(O)cc1)C(=O)N[C@@H](CCCN=C(N)N)C(=O)N[C@@H](CCCCN)C(=O)N[C@@H](CCC(N)=O)C(=O)N[C@@H](CCSC)C(=O)N[C@@H](C)C(=O)N[C@H](C(=O)N[C@@H](CCCCN)C(=O)N[C@@H](CCCCN)C(=O)N[C@@H](Cc1ccc(O)cc1)C(=O)N[C@@H](CC(C)C)C(=O)N[C@@H](C)C(=O)N[C@@H](C)C(=O)N[C@H](C(=O)N[C@@H](CC(C)C)C(=O)NCC(=O)N[C@@H](CCCCN)C(=O)N[C@@H](CCCN=C(N)N)C(=O)N[C@@H](Cc1ccc(O)cc1)C(=O)N[C@@H](CCCCN)C(=O)N[C@@H](CCC(N)=O)C(=O)N[C@@H](CCCN=C(N)N)C(=O)N[C@H](C(=O)N[C@@H](CCCCN)C(=O)N[C@@H](CC(N)=O)C(=O)N[C@@H](CCCCN)C(N)=O)C(C)C)C(C)C)C(C)C)[C@@H](C)O (some centres not stated) [PACAP(4-38)] (HELM PEPTIDE1{G.[CCC(C)[C@H](N[*:1])C(=O)[*:2]].F.T.D.S.Y.S.R.Y.R.K.Q.M.A.V.K.K.Y.L.A.A.V.L.G.K.R.Y.K.Q.R.V.K.N.K.[am]}$$$$V2.0)
2,1500 nM and 5000 nM,"H-SNGIFTDSYSRYRKQMAVKKYLAAVL-NH2 [[Des-His1,Asn3]PACAP-27]"
3,25 nM and 150 nM,H-TDSYSRYRKQMAVKKYLAAVLGKRYKQRVKNK-NH2 [PACAP(7-38)]
